{"source": "paper PMC8241176", "about": "“Preliminary study on fabrication, characterization and synergistic anti-lung cancer effects of self-assembled micelles of covalently conjugated celastrol–polyethylene glycol–ginsenoside Rh2” (Drug Delivery, 2017)", "test_system": "A549 cells", "assay": "Antiproliferative effect by MTT assay", "type": "cell-based, human", "conditions": "48 h, G Rh2 6.4 μg/mL", "experimental": "The human NSCLC cell line, A549, was cultured in RPMI 1640 medium containing 10% FBS at 37 °C and 5% CO2 in an incubator with saturated humidity. The medium was replaced every 2 days and the cells were passaged at the split ratio of 1:8 every 5–7 days. Cells grown to the logarithmic growth phase were harvested for further experiments.\nThe A549 cells were seeded in a 96-well plate at 5 × 10^3 cells/well and incubated for 24 h. The medium was then discarded and each well received 100 μL of different concentrations of CG-M, CG-Mblank, celastrol + G Rh2, celastrol and G Rh2. After 48 h of incubation, 100 μL of 0.5 mg/mL MTT in phosphate-buffered saline (PBS) was added to each well, followed by 4 h of incubation in the dark. […] The plate was shaken at low speed for 3 min, and the absorbance at 570 nm was measured using a microplate reader to calculate cell viability. Cell viability (%) = Absorbance of the drug treatment group (Adrug)/Absorbance of the control group (Acontrol) × 100. The IC50 was calculated by GraphPad prism 6.0 software (GraphPad Software Inc., San Diego, CA). The combined index (CI) was calculated with the following formula: CI = IC50 of celastrol in combination group/IC50 of celastrol + IC50 of G Rh2 in combination group/IC50 of G Rh2 (Qu et al., [2017]; Wu et al., [2017]), which represents a synergistic antitumor effect if the value is less than 1.", "data": [{"smiles": "CC(C)=CCC[C@](C)(O)[C@H]1CC[C@]2(C)[C@@H]1[C@H](O)C[C@@H]1[C@@]3(C)CC[C@H](O[C@@H]4O[C@H](CO)[C@@H](O)[C@H](O)[C@H]4O)C(C)(C)[C@@H]3CC[C@]12C", "note": "[G Rh2, ginsenoside Rh2]", "values": [{"measurement": "survival rate of cells", "result": 67.5, "unit": "%"}]}]}
